How the values were obtained:
[1] = Relative hydrophobicity by reversed-phase HPLC retention time (method of Hodges and coworkers); format: physicochemical; conditions: for retention time, tR (measure of hydrophobicity): Kromasil C18, 0.2% TFA water/ACN linear gradient 0.25% ACN/min from 55% B, 0.3 mL/min, 25° C., co-injection, FIG. 4; for retention time difference ΔtR relative to allo-D-Thr/allo-L-Thr pair: same reversed-phase HPLC conditions, CF3 vs CH3
Procedure: As fluorination can decrease the hydrophilicity of a molecule [(a) Böhm, H-J.; Banner, D.; Bendels, S.; Kansy, M.; Kuhn, B.; Müller, K.; Obst-Sander, U.; Stahl, M. Chem BioChem. 2004, 5, 637-643. […] 1996, 276, 1049-1057.], the hydrophobicity of Fmoc-tfT (1a and 1b) relative to their non-fluorinated counterparts was determined. The chromatography method developed by Hodges and coworkers [Kovacs, J. M.; Mant, C. T.; Hodges, R. S. Biopolymers (Peptide Science) 2006, 84, 283-297.], who determined the relative hydrophobicity of 23 L-amino acids and their D-enantiomers, was used. As pointed out by Hodges and coworkers [Kovacs, J. M.; Mant, C. T.; Hodges, R. S. Biopolymers (Peptide Science) 2006, 84, 283-297.], a criterion for measuring true hydrophobicity of an amino acid is that the D/L enantiomers should give the same retention time, tR. […] All of the enantiomeric pairs, allo-D-Thr/allo-L-Thr (tR=7.2 min), D-Thr/L-Thr (tR=9.2 min) and allo-D-tfT/allo-L-tfT (tR=11.6 min), co-elute, satisfying the criterion established by Hodges and coworkers. [Kovacs, J. M.; Mant, C. T.; Hodges, R. S. Biopolymers (Peptide Science) 2006, 84, 283-297.] In reversed-phase chromatography, a larger retention time typically indicates a more hydrophobic molecule. The allo-D-tfT/allo-L-tfT pair is more retentive than the allo-D-Thr/allo-L-Thr pair (ΔtR=11.6−7.2=4.2 min). […] [Kovacs, J. M.; Mant, C. T.; Hodges, R. S. Biopolymers (Peptide Science) 2006, 84, 283-297.]
In FIG. 4, all chromatography runs followed exactly the same conditions used by Hodges and coworkers [Zhang, X. G.; Ni, W. J.; van der Donk, W. A. J. Org. Chem. 2005, 70, 6685-6692.]. The HPLC conditions are as follows: column, Kromasil C18 (150 mm×2.1 mm I.D., 5 μm, 100 Å pore size, Higgins Analytical, Inc., CA); mobile phase, A: 0.2% TFA (trifluoroacetic acid) in water, B: 0.2% TFA in ACN (acetonitrile); condition, linear AB gradient (0.25% ACN/min, starting from 55% B); flow rate, 0.3 mL/min; temperature, 25° C. 1a and 1b were purified by silica-gel column chromatography and dissolved in mobile phase B before injection. allo-D-N-Fmoc-O-tert-butyl-Thr and allo-L-N-Fmoc-O-tert-butyl-Thr were from BACHEM California Inc. D-N-Fmoc-O-tert-butyl-Thr and L-N-Fmoc-O-tert-butyl-Thr were from Novabiochem.

[2] = literature values of Kovacs, Mant, Hodges 2006; cited from earlier work

Row | retention time, tR (measure of hydrophobicity) [1] [min] | Structure (SMILES) | further results
1 | 7.2 | C[C@H](OC(C)(C)C)[C@H](NC(=O)OCC1c2ccccc2-c2ccccc21)C(=O)O [allo-L-Thr, (2S,3S)-N-Fmoc-O-tent-butyl-threonine] | 
2 | 7.2 | C[C@@H](OC(C)(C)C)[C@@H](NC(=O)OCC1c2ccccc2-c2ccccc21)C(=O)O [allo-D-Thr, (2R,3R)-N-Fmoc-O-tert-butyl-threonine] | 
3 | 11.6 | CC(C)(C)O[C@H]([C@H](NC(=O)OCC1c2ccccc2-c2ccccc21)C(=O)O)C(F)(F)F [allo-L-tfT, (2S,3R)-4,4,4-trifluoro-N-Fmoc-O-tert-butyl-threonine] | retention time difference ΔtR relative to allo-D-Thr/allo-L-Thr pair [1]: 4.2 min

Continued, compound first:

Row | Structure (SMILES) | retention time, tR (measure of hydrophobicity) [1] [min] | further results
4 | C[C@H](N)C(=O)O [Ala] |  | retention time difference ΔtR relative to Gly [2]: 2.8 min
5 | CC(C)[C@H](N)C(=O)O [Val] |  | retention time difference ΔtR relative to Ala [2]: 10.6 min
6 | N[C@@H](CS)C(=O)O [Cys, cysteine] |  | retention time difference ΔtR relative to Ala [2]: 4.8 min
7 | C[C@@H](OC(C)(C)C)[C@H](NC(=O)OCC1c2ccccc2-c2ccccc21)C(=O)O [L-Thr, (2S,3R)-N-Fmoc-O-tent-butyl-threonine] | 9.2 | 
8 | C[C@H](OC(C)(C)C)[C@@H](NC(=O)OCC1c2ccccc2-c2ccccc21)C(=O)O [D-Thr, (2R,3S)-N-Fmoc-O-tert-butyl-threonine] | 9.2 | 
9 | CC(C)(C)O[C@@H]([C@@H](NC(=O)OCC1c2ccccc2-c2ccccc21)C(=O)O)C(F)(F)F [allo-D-tfT, (2R,3S)-2-(((9H-fluoren-9-yl)methoxy)carbonylamino)-3-tert-butoxy-4,4,4-trifluorobutanoic acid] | 11.6 | retention time difference ΔtR relative to allo-D-Thr/allo-L-Thr pair [1]: 4.2 min
